Several values for one entry are separate records, joined by “and”; a condition that tells them apart may be missing. Equal entries are not always repeated.
Columns and labels:
[1] = system: Glomerella lagenarium (Colletotrichum lagenarium); test: Glomerella lagenarium (Colletotrichum lagenarium) liquid culture / cucumber / preventative (anthracnose); format: cell-based; details: Colletotrichum orbiculare; 20 ppm in the applied formulation; liquid culture in PDB, 24° C.; 3 to 4 days after application; read-out: disease control compared to untreated control (inhibition of growth measured photometrically)
Experimental: Mycelia fragments or conidia suspensions of a fungus prepared either freshly from liquid cultures of the fungus or from cryogenic storage, are directly mixed into nutrient broth. DMSO solutions of the test compound (max. 10 mg/ml) are diluted with 0.025% Tween20 by a factor of 50 and 10 μl of this solution is pipetted into a microtiter plate (96-well format). The nutrient broth containing the fungal spores/mycelia fragments is then added to give an end concentration of the tested compound. The test plates are incubated in the dark at 24° C. and 96% relative humidity. The inhibition of fungal growth is determined photometrically after 2 to 7 days, depending on the pathosystem, and percent antifungal activity relative to the untreated check is calculated.
Conidia of the fungus from cryogenic storage are directly mixed into nutrient broth (PDB—potato dextrose broth). After placing a (DMSO) solution of test compound into a microtiter plate (96-well format), the nutrient broth containing the fungal spores is added. The test plates are incubated at 24° C. and the inhibition of growth is measured photometrically 3 to 4 days after application.
The following compounds at 20 ppm in the applied formulation give at least 80% disease control in this test when compared to untreated control under the same conditions, which show extensive disease development.

[2] = system: Puccinia recondita f. Sp. Tritici; test: Puccinia recondita f. sp. tritici / wheat / leaf disc preventative (brown rust); format: in vivo; details: foliar, 200 ppm in the applied formulation, wheat leaf segments cv. Kanzler, inoculated 1 day after application, assessed 7 to 9 days after application, read-out: disease control compared to untreated control leaf disks
Experimental: Leaf disks or leaf segments of various plant species are cut from plants grown in a greenhouse. The cut leaf disks or segments are placed in multiwell plates (24-well format) onto water agar. The leaf disks are sprayed with a test solution before (preventative) or after (curative) inoculation. Compounds to be tested are prepared as DMSO solutions (max. 10 mg/ml) which are diluted to the appropriate concentration with 0.025% Tween20 just before spraying. The inoculated leaf disks or segments are incubated under defined conditions (temperature, relative humidity, light, etc.) according to the respective test system. A single evaluation of disease level is carried out 3 to 14 days after inoculation, depending on the pathosystem. Percent disease control relative to the untreated check leaf disks or segments is then calculated. Wheat leaf segments cv. Kanzler were placed on agar in multiwell plates (24-well format) and sprayed with the formulated test compound diluted in water. The leaf disks were inoculated with a spore suspension of the fungus 1 day after application. The inoculated leaf segments were incubated at 19° C. and 75% relative humidity (rh) under a light regime of 12 hours light/12 hours darkness in a climate cabinet and the activity of a compound was assessed as percent disease control compared to untreated when an appropriate level of disease damage appears in untreated check leaf segments (7 to 9 days after application). The following compounds at 200 ppm in the applied formulation give at least 80% disease control in this test when compared to untreated control leaf disks under the same conditions, which show extensive disease development.

Phakopsora pachyrhizi = Phakopsora pachyrhizi / soybean / leaf disc preventative (Asian soybean rust); format: in vivo; details: foliar, 200 ppm in the applied formulation, soybean leaf disks, inoculated one day after application, assessed 12 to 14 days after application, read-out: disease control compared to untreated control leaf disks
Experimental: Leaf disks or leaf segments of various plant species are cut from plants grown in a greenhouse. The cut leaf disks or segments are placed in multiwell plates (24-well format) onto water agar. The leaf disks are sprayed with a test solution before (preventative) or after (curative) inoculation. Compounds to be tested are prepared as DMSO solutions (max. 10 mg/ml) which are diluted to the appropriate concentration with 0.025% Tween20 just before spraying. The inoculated leaf disks or segments are incubated under defined conditions (temperature, relative humidity, light, etc.) according to the respective test system. A single evaluation of disease level is carried out 3 to 14 days after inoculation, depending on the pathosystem. Percent disease control relative to the untreated check leaf disks or segments is then calculated.
Soybean leaf disks are placed on water agar in multiwell plates (24-well format) and sprayed with the formulated test compound diluted in water. One day after application leaf discs are inoculated by spraying a spore suspension on the lower leaf surface. After an incubation period in a climate cabinet of 24-36 hours in darkness at 20° C. and 75% rh leaf disc are kept at 20° C. with 12 h light/day and 75% rh. The activity of a compound is assessed as percent disease control compared to untreated when an appropriate level of disease damage appears in untreated check leaf disks (12 to 14 days after application).
The following compounds at 200 ppm in the applied formulation give at least 80% disease control in this test when compared to untreated control leaf disks under the same conditions, which show extensive disease development.

melting point	SMILES	inhibition at 20 ppm [1] [%]	pest or weed control at 200 ppm [2] [%]	pest or weed control at 200 ppm (Phakopsora pachyrhizi) [%]
94 to 100 °C	[O-][S+](c1ccc(-c2noc(C(F)(F)F)n2)cc1)c1ccc(C(F)(F)F)cc1 (stereo not shown) [Compound 2.14, 5-(trifluoromethyl)-3-[4-[4-(trifluoromethyl)phenyl]sulfinylphenyl]-1,2,4-oxadiazole]	≥ 80	≥ 80	–
103 to 105 °C	Cc1ccccc1[S+]([O-])c1ccc(-c2noc(C(F)(F)F)n2)cn1 (stereo not shown) [Compound 2.25, 3-[6-(o-tolylsulfinyl)-3-pyridyl]-5-(trifluoromethyl)-1,2,4-oxadiazole]	≥ 80	≥ 80	≥ 80
148 to 155 °C	[O-][S+](c1ccc(-c2noc(C(F)(F)F)n2)cc1)c1c(F)cccc1F (stereo not shown) [Compound 2.16, 3-[4-(2,6-difluorophenyl)sulfinyl-phenyl]-5-(trifluoromethyl)-1,2,4-oxadiazole]	–	≥ 80	≥ 80
124 to 127 °C and 124 to 129 °C	O=S(=O)(c1ccccc1)c1ccc(-c2noc(C(F)(F)F)n2)cn1 [Compound 3.7, 3-[6-(benzenesulfonyl)-3-pyridyl]-5-(trifluoromethyl)-1,2,4-oxadiazole]	≥ 80	≥ 80	≥ 80
48 to 54 °C	Fc1cc(CSc2ccccc2)ccc1-c1noc(C(F)(F)F)n1 [Compound 1.25, 3-[2-fluoro-4-(phenylsulfanylmethyl)phenyl]-5-(trifluoromethyl)-1,2,4-oxadiazole]	≥ 80	–	≥ 80
119 to 123 °C	COc1ccccc1S(=O)(=O)c1ccc(-c2noc(C(F)(F)F)n2)cc1 [Compound 3.10, 3-[4-(2-methoxyphenyl)sulfonyl-phenyl]-5-(trifluoromethyl)-1,2,4-oxadiazole]	–	≥ 80	–
103 to 111 °C	[O-][S+](c1ccc(-c2noc(C(F)(F)F)n2)cc1)c1cccc(F)c1 (stereo not shown) [Compound 2.20, 3-[4-(3-fluorophenyl)sulfinylphenyl]-5-(trifluoromethyl)-1,2,4-oxadiazole]	≥ 80	≥ 80	≥ 80
126 to 130 °C	[O-][S+](Cc1c(F)cccc1F)c1ccc(-c2noc(C(F)(F)F)n2)cc1 (stereo not shown) [Compound 2.9, 3-[4-[(2,6-difluorophenyl)methyl-sulfinyl]phenyl]-5-(trifluoromethyl)-1,2,4-oxadiazole]	≥ 80	–	≥ 80
66 to 68 °C	Cc1ccccc1S(=O)(=O)c1ccc(-c2noc(C(F)(F)F)n2)cn1 [Compound 3.18, 3-[6-(o-tolylsulfonyl)-3-pyridyl]-5-(trifluoromethyl)-1,2,4-oxadiazole]	≥ 80	≥ 80	–
108 to 118 °C	[O-][S+](Cc1ccc(-c2noc(C(F)(F)F)n2)cc1)c1ccccc1F (stereo not shown) [Compound 2.17, 3-[4-[(2-fluorophenyl)sulfinylmethyl]phenyl]-5-(trifluoromethyl)-1,2,4-oxadiazole]	≥ 80	–	≥ 80
140 to 147 °C	O=S(=O)(c1ccc(-c2noc(C(F)(F)F)n2)cc1)c1ccccc1F [Compound 3.12, 3-[4-(2-fluorophenyl)sulfonylphenyl]-5-(trifluoromethyl)-1,2,4-oxadiazole]	≥ 80	–	≥ 80
103 to 109 °C	Cc1ccc(C)c([S+]([O-])c2ccc(-c3noc(C(F)(F)F)n3)cc2)c1 (stereo not shown) [Compound 2.7, 3-[4-(2,5-dimethylphenyl)sulfinyl-phenyl]-5-(trifluoromethyl)-1,2,4-oxadiazole]	≥ 80	≥ 80	≥ 80
116 to 120 °C	[O-][S+](Cc1ccc(-c2noc(C(F)(F)F)n2)cc1F)c1ccccc1 (stereo not shown) [Compound 2.29, 3-[4-(benzenesulfinylmethyl)-3-fluoro-phenyl]-5-(trifluoromethyl)-1,2,4-oxadiazole]	≥ 80	–	≥ 80
72 to 80 °C	Fc1ccc(Sc2ccc(-c3noc(C(F)(F)F)n3)cc2)c(F)c1 [Compound 1.10, 3-[4-(2,4-difluorophenyl)sulfanylphenyl]-5-(trifluoromethyl)-1,2,4-oxadiazole]	≥ 80	–	≥ 80
145 to 151 °C	O=S(=O)(c1ccc(-c2noc(C(F)(F)F)n2)cn1)c1ccccc1F [Compound 3.19, 3-[6-(2-fluorophenyl)sulfonyl-3-pyridyl]-5-(trifluoromethyl)-1,2,4-oxadiazole]	≥ 80	≥ 80	–
109 to 115 °C	Cc1ccccc1S(=O)(=O)c1ccc(-c2noc(C(F)(F)F)n2)cc1 [Compound 3.17, 3-[4-(o-tolylsulfonyl)phenyl]-5-(trifluoromethyl)-1,2,4-oxadiazole]	≥ 80	≥ 80	–
110 to 116 °C	O=S(=O)(c1ccc(-c2noc(C(F)(F)F)n2)cc1)C1CCCCC1 [Compound 3.3, 3-(4-cyclohexylsulfonylphenyl)-5-(trifluoromethyl)-1,2,4-oxadiazole]	≥ 80	–	≥ 80
116 to 121 °C	[O-][S+](c1ccc(-c2noc(C(F)(F)F)n2)cc1)c1ccccc1F (stereo not shown) [Compound 2.18, 3-[4-(2-fluorophenyl)sulfinylphenyl]-5-(trifluoromethyl)-1,2,4-oxadiazole]	≥ 80	≥ 80	≥ 80
–	Cc1cc(-c2noc(C(F)(F)F)n2)ccc1[S+]([O-])c1ccccc1 (stereo not shown) [Compound 2.11, 3-[4-(benzenesulfinyl)-3-methyl-phenyl]-5-(trifluoromethyl)-1,2,4-oxadiazole]	≥ 80	≥ 80	≥ 80
50 to 55 °C	Fc1cc(-c2noc(C(F)(F)F)n2)ccc1CSc1ccccc1 [Compound 1.24, 3-[3-fluoro-4-(phenylsulfanylmethyl)phenyl]-5-(trifluoromethyl)-1,2,4-oxadiazole]	≥ 80	–	≥ 80
144 to 149 °C	O=S(=O)(c1ccc(F)cc1)c1ccc(-c2noc(C(F)(F)F)n2)cc1 [Compound 3.9, 3-[4-(4-fluorophenyl)sulfonylphenyl]-5-(trifluoromethyl)-1,2,4-oxadiazole]	–	≥ 80	≥ 80
